Data published in US20050069887A1, “Dna synthesis promoters dna polymerase-associated factors and utilization thereof” (priority 2001, published 2005).
Values joined by “and” are separate entries in the source; they are usually repeats but may differ in a detail not shown here. Equal values may be shown once.

Experiments:
EX-Taq DNA polymerase = assay: PCR using EX-Taq with oxalate ion and betaine (Example 2-1); format: biochemical; conditions: 2 mM potassium oxalate, 0.5 M betaine, FIG. 11
Method: Oxalate ion and betaine were investigated for their synergistic effectiveness in amplification of a target DNA which cannot be usually amplified by PCR using EX-Taq DNA polymerase (TAKARA). Potassium oxalate was added to the PCR buffer attached to EX-Taq DNA polymerase to attain a final concentration of 2 mM. Also used were 0.2 mM dNTPs, 0.3 μM of a pair of primers consisting of the sequences of ID NOs:14 and 15 respectively, and 1.0 U EX-Taq DNA polymerase. 20 ng of genomic DNA derived from human cell line K562 was used as a template. This reaction mixture was subjected to PCR by using GeneAmp2400 (PE Applied Biosystems) to investigate the influence of varying the concentration of betaine added on the PCR results. The PCR conditions were as follows: 1preliminary reaction of 94° C. for 2 minutes, and then 35 cycles of 94° C. for 15 seconds, 60° C. for 30 seconds and 68° C. for 8.5 minutes.

KOD-plus DNA polymerase = target: T1, KOD-plus DNA polymerase (Thermococcus kodakarensis, UniProt P77933, DEL407-766/DEL853-1389); assay: PCR using KOD-plus with oxalate ion and betaine (Example 2-3); format: biochemical, Thermococcus kodakaraensis KOD1; conditions: 2 mM potassium oxalate, FIG. 13
T1 construct: purchased Toyobo
T1 sequence (P77933 other isoform, or with tags, fused parts or gaps DEL407-766/DEL853-1389): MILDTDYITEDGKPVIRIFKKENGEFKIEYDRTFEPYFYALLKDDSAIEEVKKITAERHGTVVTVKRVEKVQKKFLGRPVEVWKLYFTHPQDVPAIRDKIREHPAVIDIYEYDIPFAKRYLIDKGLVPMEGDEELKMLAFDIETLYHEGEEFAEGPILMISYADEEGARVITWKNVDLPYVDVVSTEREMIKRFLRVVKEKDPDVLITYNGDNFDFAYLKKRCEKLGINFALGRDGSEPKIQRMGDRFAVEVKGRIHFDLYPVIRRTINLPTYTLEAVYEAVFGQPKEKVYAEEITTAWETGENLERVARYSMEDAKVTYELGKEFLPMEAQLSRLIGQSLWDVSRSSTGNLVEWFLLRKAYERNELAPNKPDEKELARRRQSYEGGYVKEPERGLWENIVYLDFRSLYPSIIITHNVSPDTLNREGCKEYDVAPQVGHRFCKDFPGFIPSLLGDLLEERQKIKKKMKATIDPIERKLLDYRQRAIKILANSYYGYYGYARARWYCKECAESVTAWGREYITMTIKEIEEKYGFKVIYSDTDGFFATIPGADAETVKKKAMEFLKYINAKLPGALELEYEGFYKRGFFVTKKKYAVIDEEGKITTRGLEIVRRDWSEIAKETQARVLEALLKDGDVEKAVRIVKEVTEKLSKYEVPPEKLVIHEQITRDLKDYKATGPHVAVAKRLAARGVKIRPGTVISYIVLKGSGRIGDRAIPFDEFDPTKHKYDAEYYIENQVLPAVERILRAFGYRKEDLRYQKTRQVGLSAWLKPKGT
Method: Oxalate ion and betaine were investigated for their synergistic effectiveness in amplification of a target DNA which cannot be amplified by normal PCR, using KOD-plus DNA polymerase, i.e. a hot start enzyme which is a mixture of KOD (α-type enzyme) and two kinds of KOD antibodies. Potassium oxalate was added to the PCR buffer supplied with KOD-plus (TOYOBO CO., LTD.) to attain a final concentration of 2 mM. Also used were 0.2 mM dNTPs and 0.3 μM of a pair of primers of SEQ ID NOs: 14 and 15. 20 ng of genomic DNA derived from human cell line K562 was used as a template. This reaction mixture was subjected to PCR by using GeneAmp2400 (PE Applied Biosystems) to investigate the influence of varying the concentration of betaine on the PCR results. The PCR conditions were as follows: 1 preliminary reaction of 94° C. for 2 minutes, and then 35 cycles of 94° C. for 15 seconds, 60° C. for 30 seconds and 68° C. for 8.5 minutes.

KOD DNA polymerase = KOD DNA polymerase (Thermococcus kodakarensis, UniProt P77933, DEL407-766/DEL853-1389); assay: Long PCR using KOD DNA polymerase (Examples 2-5 to 2-8); format: biochemical, Thermococcus kodakaraensis KOD1
KOD DNA polymerase, sequence (P77933 other isoform, or with tags, fused parts or gaps DEL407-766/DEL853-1389): as above
Method: Oxalate ion and betaine were investigated for their synergistic effectiveness in long PCR amplification of a target DNA of more than 20 kb derived from the human genome using KOD DNA polymerase, successful amplification of which using α-type enzyme alone has not been reported. Potassium oxalate was added to the PCR buffer supplied with KOD-plus (TOYOBO CO.,LTD.) to attain a final concentration of 2 mM. Also used were 0.4 mM dNTPs, 0.3 μM of a pair of primers of SEQ ID Nos:20 and 21, and 2.0 U KOD DNA polymerase. 200 ng of genomic DNA derived from human cell line K562 was used as a template. This reaction mixture was subjected to PCR by using GeneAmp2400 (PE Applied Biosystems) to investigate the influence on the PCR results of varying the concentration of betaine. The PCR conditions were as follows: 1 preliminary reaction of 94° C. for 2 minutes; 5 cycles of 98° C. for 10 seconds and 74° C. for 18 minutes; 5 cycles of 98° C. for 10 seconds and 72° C. for 18 minutes; 5 cycles of 98° C. for 10 seconds and 70° C. for 18 minutes; 25 cycles of 98° C. for 10 second and 68° C. for 18 minutes; and 1 additional reaction of 68° C. for 7 minutes.
Oxalate ion and betaine were investigated for their synergistic effectiveness in long PCR amplification of a target DNA of more than 20 kb derived from the human genome using KOD DNA polymerase, successful amplification of which using α-type enzyme alone has not been reported. Betaine was added to the PCR buffer supplied with KOD-plus (TOYOBO CO., LTD.) to attain a final concentration of 1.5 M. Also used were 2.0 U KOD DNA polymerase, 0.4 mM dNTPs and 0.3 μM of a pair of primers of SEQ ID Nos:22 and 23 respectively for the PCR amplification of 22 kb DNA in tPA gene, and SEQ ID Nos:22 and 24 respectively for the PCR amplification of tPA 24 kb DNA. 200 ng of genomic DNA derived from human cell line K562 was used as a template. This reaction mixture was subjected to PCR by using GeneAmp2400 (PE Applied Biosystems) to investigate the influence on the PCR results of varying the concentration of potassium oxalate. The PCR conditions were as follows: 1 preliminary reaction of 94° C. for 2 minutes; 5 cycles of 98° C. for 10 seconds and 74° C. for 18 minutes; 5 cycles of 98° C. for 10 seconds and 72° C. for 18 minutes; 5 cycles of 98° C. for 10 seconds and 70° C. for 18 minutes; 25 cycles of 98° C. for 10 seconds and 68° C. of 18 minutes; and 1 additional reaction of 68° C. for 7 minutes.
Under the aforementioned conditions in which oxalate ions and betaine are present, the effect of hot start PCR using antibodies in long PCR using KOD DNA polymerase was investigated. Potassium oxalate and betaine were added to the PCR buffer supplied with KOD-plus (TOYOBO CO.LTD.) to attain a final oxalate concentration of 2 mM and a final betaine concentration of 1.5 M. Also used were 2.0 U KOD DNA polymerase, 0.4 mM dNTPs and 0.3 μM of a pair of primers of SEQ ID Nos:22 and 25 for PCR amplification of tPA 12 kb DNA; SEQ ID Nos:22 and 26 for PCR amplification of tPA 15 kb DNA; SEQ ID Nos:22 and 27 for PCR amplification of tPA 18 kb DNA; SEQ ID Nos:22 and 23 for PCR amplification of tPA 22 kb DNA; SEQ ID Nos:22 and 24 for PCR amplification of tPA 24 kb DNA; and SEQ ID Nos:28 and 29 for PCR amplification of β-globin 17.5 kb DNA. 200 ng of genomic DNA derived from human cell line K562 was used as a template. […]

[1] = 2 mM potassium oxalate, target of more than 20 kb, FIG. 15

| Compound | amplification of target DNA (EX-Taq DNA polymerase) | betaine concentration at which the amount of amplification was greatest (KOD-plus DNA polymerase) | betaine concentration giving an increased amount of amplification of the target DNA (KOD-plus DNA polymerase) | betaine concentration at which sufficient amplification of both target DNAs was observed (KOD DNA polymerase; 2 mM potassium oxalate, tPA 9 kb and 12 kb, FIG. 18) | betaine concentration at which amplification of the target DNA was not observed (KOD DNA polymerase; [1]) | betaine concentration at which sufficient amplification was found (KOD DNA polymerase; [1]) | potassium oxalate concentration at which amplification was confirmed (KOD DNA polymerase; 1.5 M betaine, tPA 22 kb DNA, FIG. 16) | potassium oxalate concentration at which slight amplification was observed (KOD DNA polymerase; 1.5 M betaine, tPA 24 kb DNA, FIG. 16) |
| --- | --- | --- | --- | --- | --- | --- | --- | --- |
| C[N+](C)(C)CC(=O)[O-] [betaine, trimethylglycine] | an increase in amplification amount was observed | 1.5 M | 0.5 to 1.5 M | 1 M and 1.5 M | ≤ 1.2 M | 1.4 M and 1.6 M | – | – |
| O=C([O-])C(=O)[O-].[K+].[K+] [potassium oxalate] | – | – | – | – | – | – | 2 mM | 1.5 mM and 2.0 mM |
